Results as given in patent US20210002712A1, “PHOSPHATIDIC ACID SENSOR” (NATIONAL UNIVERSITY CORPORATION CHIBA UNIVERSITY, priority 2019, published 2021).

Test: Liposome cosedimentation assay, 18:1/18:1-PA liposomes
Type: binding
Details: 6×His-SUMO-tagged protein 2.5 μM; PA 150 μM
Description: FIG. 1. A schematic architecture of α-Syn and its deletion mutants. FIG. 2. The purified SUMO-tagged-α-Syn and its deletion mutant protein (2.5 μM) were incubated with 18:1/18:1-PA or 18:1/18:1-PS liposomes (PA or […]: 150 μM) and then separated by ultracentrifugation. SDS-PAGE (15%) was performed and separated proteins were stained with Coomassie Brilliant Blue. The positions of α-Syn and its mutants are indicated with arrow heads. The amounts of protein in the supernatant (S) and precipitant (P) were quantified by densitometry using ImageJ software. Binding activity was calculated as the percentage of the precipitate band intensity compared to the total band intensities. Values are presented as the mean±S.D. of four independent experiments. **P<0.01 versus the 18:1/18:1-PS liposome.
FIG. 3. The purified SUMO-tagged-α-Syn-N protein (2.5 μM) was incubated with control (PC and Chol alone), 16:0/16:0-PA, 16:0/18:1-PA, 18:1/18:1-PA, or 18:0/18:0-PA liposomes (PA: 150 μM) and then separated by ultracentrifugation. SDS-PAGE (15%) was performed and separated proteins were stained with Coomassie Brilliant Blue. The position of α-Syn-N is indicated with an arrow head.
FIG. 4. The amounts of protein in the supernatant (S) and precipitant (P) were quantified by densitometry using ImageJ software. Binding activity was calculated as the percentage of the precipitate band intensity compared to the total band intensities. Values are presented as the mean±S.D. of three independent experiments. #P<0.05, ##P<0.01, ###P<0.005 versus the 18:1/18:1-PA-liposome, *P<0.05, ***P<0.005 versus the control liposome.
FIG. 5. The purified SUMO-tagged-α-Syn protein (0.1 μM) was incubated with 18:1/18:1-PA liposomes of the indicated concentrations (0-20 μM) and then separated by ultracentrifugation. SDS-PAGE (15%) was performed and separated proteins were detected with silver staining. The position of α-Syn-N is indicated with an arrow head.
FIG. 6. The amounts of protein in the precipitant were quantified by densitometry using ImageJ software. Binding activity was calculated as the percentage of the precipitate band intensity compared to the total band intensities (Input). Values are presented as the mean±S.D. of four independent experiments. The Kd was determined using GraphPad Prism 8 (Dissociation-One phase exponential decay).
FIG. 7. The purified SUMO-tagged-α-Syn protein (0.1 μM) was incubated with 18:1/18:1-PA, 18:1/18:1-PS, 18:1/18:1-PI(4,5)P2, 18:1/18:1-PE and d18:1/18:1-C1P liposomes (20 μM) and then separated by ultracentrifugation. SDS-PAGE (15%) analysis was performed and separated proteins were detected with silver staining. The position of α-Syn-N is indicated with an arrow head.
FIG. 8. The amounts of protein in the precipitant were quantified by densitometry using ImageJ software. The PA binding activity of α-Syn-N was set to 100%. Values are presented as the mean±S.D. of three independent experiments. ***P<0.005 versus 18:1/18:1-PA liposome.
The following lipid mixtures were used: the control liposome: Chol (50 mol %) and 16:0/18:1-PC (50 mol %); and the PA liposome: Chol (50 mol %), 16:0/18:1-PC (35 mol %) and each PA species (15 mol %). The combined dried lipid mixture was resuspended in HEPES buffer. Then, the lipid mixture was vortexed for 1 min. Liposome formation was induced by sonication at 75° C. The purified SUMO-tagged α-Syn and its deletion mutants (2.5 μM) were dissolved in HEPES buffer and incubated with the control or PA-containing liposomes at room temperature for 1 h. Then, the samples were centrifuged at 200,000 g at 4° C. for 1 h. The precipitant was dissolved in HEPES buffer. The supernatant and pellet were analyzed by SDS-PAGE followed by Coomassie Brilliant Blue and silver staining. Quantitative densitometry was performed using ImageJ software. Since the lipid forms a bilayer, half of the actual concentration was considered.

## α-Syn-NAC-C: NAC and C deletion mutant of α-Syn (Glu61-Ala140), 6×His-SUMO-tagged
  PA-binding activity (18:1/18:1-PA liposomes): failed to show substantial PA-binding activity

## α-Syn-NAC: non-amyloid-β-component deletion mutant of α-Syn (Glu61-Val95), 6×His-SUMO-tagged
  PA-binding activity (18:1/18:1-PA liposomes): failed to show substantial PA-binding activity

## α-Syn-C: C-terminal region deletion mutant of α-Syn (Lys96-Ala140), 6×His-SUMO-tagged
  PA-binding activity (18:1/18:1-PA liposomes): failed to show substantial PA-binding activity
